{"source": "PubChem BioAssay AID256", "about": "(DTP/NCI, 2004)", "tested_on": "CD2F1 mice, L1210 leukemia ip, survival T/C", "experiment": "NCI In Vivo Anticancer Drug Screen. Data for tumor model L1210 Leukemia (intraperitoneal) in CD2F1 (CDF1) mice", "conditions": "higher = longer survival", "method_in_brief": "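Ratio T/C, where T is the treated-group value and C the vehicle-dosed control value, from mice implanted with a transplantable tumor.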", "key": {"[1]": {"conditions": "endpoint: mean survival time, dose: 100.0 mg/kg/injection, schedule: Q01DX009 (ip), vehicle: saline with Tween-80"}, "[2]": {"conditions": "endpoint: mean survival time, dose: 200.0 mg/kg/injection, schedule: Q01DX001 (ip), vehicle: saline with Tween-80"}, "[3]": {"conditions": "endpoint: mean survival time, dose: 200.0 mg/kg/injection, schedule: Q01DX009 (ip), vehicle: saline with Tween-80"}, "[4]": {"conditions": "endpoint: mean survival time, dose: 400.0 mg/kg/injection, schedule: Q01DX001 (ip), vehicle: saline with Tween-80"}, "[5]": {"conditions": "endpoint: mean survival time, dose: 400.0 mg/kg/injection, schedule: Q01DX009 (ip), vehicle: saline with Tween-80"}, "[6]": {"conditions": "endpoint: mean survival time, dose: 100.0 mg/kg/injection, schedule: Q04DX003 (ip), vehicle: saline with Tween-80"}, "[7]": {"conditions": "endpoint: mean survival time, dose: 200.0 mg/kg/injection, schedule: Q04DX003 (ip), vehicle: saline with Tween-80"}, "[8]": {"conditions": "endpoint: mean survival time, dose: 400.0 mg/kg/injection, schedule: Q04DX003 (ip), vehicle: saline with Tween-80"}}, "note": "Where “and” joins values, the source holds several entries; their conditions need not be identical. Equal entries are not always repeated. Toxic doses and inconclusive results are not listed.", "data": [{"smiles": "C[C@]12CCCC[C@@H]1CC[C@@H]1[C@@H]2CC[C@]2(C)[C@@H](N(CCO)CCCO)CC[C@@H]12", "values": [{"measurement": "T/C", "setting": "endpoint: mean survival time, dose: 100.0 mg/kg/injection, schedule: Q04DX003 (sc), vehicle: steriod suspending solution", "value": "98 % of control"}, {"measurement": "T/C", "setting": "endpoint: mean survival time, dose: 200.0 mg/kg/injection, schedule: Q04DX003 (sc), vehicle: steriod suspending solution", "value": "91 % of control"}, {"measurement": "T/C", "setting": "endpoint: mean survival time, dose: 400.0 mg/kg/injection, schedule: Q04DX003 (sc), vehicle: steriod suspending solution", "value": "107 % of control"}]}, {"smiles": "CCC(=O)NCCc1ccccc1", "values": [{"measurement": "T/C", "setting": "[1]", "value": "100 % of control"}, {"measurement": "T/C", "setting": "[2]", "value": "97 % of control"}, {"measurement": "T/C", "setting": "[3]", "value": "100 % of control"}, {"measurement": "T/C", "setting": "[4]", "value": "97 % of control"}]}, {"smiles": "Cc1cc(NCCCN(C)C)c2ccc3c(ccc4c(NCCCN(C)C)cc(C)nc43)c2n1", "values": [{"measurement": "T/C", "setting": "endpoint: median survival time, dose: 0.38 mg/kg/injection, schedule: Q01DX009 (ip), vehicle: saline", "value": "95 % of control"}, {"measurement": "T/C", "setting": "endpoint: median survival time, dose: 0.75 mg/kg/injection, schedule: Q01DX009 (ip), vehicle: saline", "value": "93 % of control"}, {"measurement": "T/C", "setting": "endpoint: median survival time, dose: 1.5 mg/kg/injection, schedule: Q01DX009 (ip), vehicle: saline", "value": "113 % of control"}, {"measurement": "T/C", "setting": "endpoint: median survival time, dose: 3.0 mg/kg/injection, schedule: Q01DX009 (ip), vehicle: saline", "value": "110 % of control"}]}, {"smiles": "CCC(c1ccc(OC)cc1)C(CC)c1ccc(O)c(CN2CCN(C)CC2)c1", "note": "(stereo not given)", "values": [{"measurement": "T/C", "setting": "[1]", "value": "102 % of control"}]}, {"smiles": "Cc1c(C)c2c(c(C)c1O)CC(CC(=O)CO)CO2", "note": "(stereo not given)", "values": [{"measurement": "T/C", "setting": "[1]", "value": "93 % of control"}, {"measurement": "T/C", "setting": "[3]", "value": "100 % of control"}, {"measurement": "T/C", "setting": "[5]", "value": "93 % of control"}]}, {"smiles": "CC(C)NC(=O)N(CCCCBr)N=O", "values": [{"measurement": "T/C", "setting": "endpoint: median survival time, dose: 12.0 mg/kg/injection, schedule: Q01DX009 (ip), vehicle: Klucel (hydroxypropylcellulose) (HPC)", "value": "108 % of control"}, {"measurement": "T/C", "setting": "endpoint: median survival time, dose: 25.0 mg/kg/injection, schedule: Q01DX009 (ip), vehicle: Klucel (hydroxypropylcellulose) (HPC)", "value": "116 % of control"}, {"measurement": "T/C", "setting": "endpoint: median survival time, dose: 50.0 mg/kg/injection, schedule: Q01DX009 (ip), vehicle: Klucel (hydroxypropylcellulose) (HPC)", "value": "124 % of control"}, {"measurement": "T/C", "setting": "endpoint: median survival time, dose: 100.0 mg/kg/injection, schedule: Q01DX009 (ip), vehicle: Klucel (hydroxypropylcellulose) (HPC)", "value": "160 % of control"}, {"measurement": "T/C", "setting": "endpoint: median survival time, dose: 200.0 mg/kg/injection, schedule: Q01DX009 (ip), vehicle: Klucel (hydroxypropylcellulose) (HPC)", "value": "112 % of control"}]}, {"smiles": "C(=N/N=C/c1ccc2c(c1)OCO2)/c1ccco1", "values": [{"measurement": "T/C", "setting": "[6]", "value": "93 % of control"}, {"measurement": "T/C", "setting": "[3]", "value": "90 % of control"}, {"measurement": "T/C", "setting": "[7]", "value": "96 % of control"}, {"measurement": "T/C", "setting": "[5]", "value": "86 % of control"}, {"measurement": "T/C", "setting": "[8]", "value": "95 % of control"}]}, {"smiles": "O=C(NC(=S)Nc1cccc2c(O)cccc12)c1cccc(Br)c1", "values": [{"measurement": "T/C", "setting": "endpoint: mean survival time, dose: 100.0 mg/kg/injection, schedule: Q01DX001 (ip), vehicle: saline with Tween-80", "value": "88 % of control and 91 % of control"}, {"measurement": "T/C", "setting": "[1]", "value": "86 % of control and 98 % of control"}, {"measurement": "T/C", "setting": "endpoint: mean survival time, dose: 100.0 mg/kg/injection, schedule: Q04DX002 (ip), vehicle: saline with Tween-80", "value": "90 % of control and 91 % of control"}, {"measurement": "T/C", "setting": "[6]", "value": "94 % of control"}, {"measurement": "T/C", "setting": "[2]", "value": "88 % of control and 92 % of control"}, {"measurement": "T/C", "setting": "[3]", "value": "103 % of control and 108 % of control"}, {"measurement": "T/C", "setting": "endpoint: mean survival time, dose: 200.0 mg/kg/injection, schedule: Q04DX002 (ip), vehicle: saline with Tween-80", "value": "91 % of control and 94 % of control"}, {"measurement": "T/C", "setting": "[7]", "value": "94 % of control"}, {"measurement": "T/C", "setting": "[4]", "value": "88 % of control and 90 % of control"}, {"measurement": "T/C", "setting": "[5]", "value": "116 % of control and 108 % of control"}, {"measurement": "T/C", "setting": "endpoint: mean survival time, dose: 400.0 mg/kg/injection, schedule: Q04DX002 (ip), vehicle: saline with Tween-80", "value": "90 % of control and 95 % of control"}, {"measurement": "T/C", "setting": "[8]", "value": "94 % of control"}]}, {"smiles": "CN(C)c1nc2c(N)ncnc2n1C1OC(CO)C(O)C1O", "note": "(stereo not given)", "values": [{"measurement": "T/C", "setting": "endpoint: mean survival time, dose: 10.0 mg/kg/injection, schedule: Q04DX002 (ip), vehicle: saline with Tween-80", "value": "103 % of control"}, {"measurement": "T/C", "setting": "endpoint: mean survival time, dose: 20.0 mg/kg/injection, schedule: Q04DX002 (ip), vehicle: saline with Tween-80", "value": "98 % of control"}, {"measurement": "T/C", "setting": "endpoint: mean survival time, dose: 40.0 mg/kg/injection, schedule: Q04DX002 (ip), vehicle: saline with Tween-80", "value": "98 % of control"}, {"measurement": "T/C", "setting": "endpoint: mean survival time, dose: 50.0 mg/kg/injection, schedule: Q01DX001 (ip), vehicle: saline", "value": "100 % of control"}, {"measurement": "T/C", "setting": "endpoint: mean survival time, dose: 50.0 mg/kg/injection, schedule: Q01DX009 (ip), vehicle: saline", "value": "123 % of control"}, {"measurement": "T/C", "setting": "endpoint: mean survival time, dose: 100.0 mg/kg/injection, schedule: Q01DX001 (ip), vehicle: saline", "value": "106 % of control"}, {"measurement": "T/C", "setting": "endpoint: mean survival time, dose: 100.0 mg/kg/injection, schedule: Q01DX009 (ip), vehicle: saline", "value": "100 % of control"}, {"measurement": "T/C", "setting": "endpoint: mean survival time, dose: 200.0 mg/kg/injection, schedule: Q01DX001 (ip), vehicle: saline", "value": "102 % of control"}]}, {"smiles": "NCC1OC(OC2C(CO)OC(OC3C(O)C(N)CC(N)C3OC3OC(CO)C(O)CC3N)C2O)C(N)C(O)C1OC1OC(CO)C(O)C(O)C1O", "note": "(stereo not given)", "values": [{"measurement": "T/C", "setting": "endpoint: mean survival time, dose: 100.0 mg/kg/injection, schedule: Q04DX002 (ip), vehicle: saline", "value": "98 % of control"}, {"measurement": "T/C", "setting": "endpoint: mean survival time, dose: 200.0 mg/kg/injection, schedule: Q04DX002 (ip), vehicle: saline", "value": "92 % of control"}, {"measurement": "T/C", "setting": "endpoint: mean survival time, dose: 400.0 mg/kg/injection, schedule: Q04DX002 (ip), vehicle: saline", "value": "95 % of control"}]}, {"smiles": "[O]=[Nb]", "values": [{"measurement": "T/C", "setting": "endpoint: mean survival time, dose: 5.0 mg/kg/injection, schedule: Q04DX003 (ip), vehicle: saline", "value": "102 % of control"}, {"measurement": "T/C", "setting": "endpoint: mean survival time, dose: 10.0 mg/kg/injection, schedule: Q04DX003 (ip), vehicle: saline", "value": "98 % of control"}]}]}
